Changes are numbered by the printed parent chain.
Legend:
Experiment in all cases: Fluo-4 calcium assay, HEK293T + Galpha16gust44
Format in all cases: cell-based
hTAS2R16 (ssr3-hTAS2R16) [1] = target: T1, hTAS2R16 (ssr3-hTAS2R16) (Homo sapiens, UniProt Q9NYV7, F240Y)
T1 sequence (Q9NYV7 1-291 F240Y): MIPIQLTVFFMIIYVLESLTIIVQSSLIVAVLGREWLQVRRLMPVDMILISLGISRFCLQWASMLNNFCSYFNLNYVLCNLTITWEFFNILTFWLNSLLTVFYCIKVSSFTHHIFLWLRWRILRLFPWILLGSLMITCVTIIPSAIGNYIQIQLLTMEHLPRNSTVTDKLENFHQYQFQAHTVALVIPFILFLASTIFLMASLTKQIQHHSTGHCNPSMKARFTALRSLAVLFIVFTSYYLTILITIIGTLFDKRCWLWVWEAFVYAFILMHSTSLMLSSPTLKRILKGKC

hTAS2R16 (ssr3-hTAS2R16) [2] = target: T2, hTAS2R16 (ssr3-hTAS2R16) (Homo sapiens, UniProt Q9NYV7, I243L)
T2 sequence (Q9NYV7 1-291 I243L): T1 sequence (Q9NYV7 1-291 F240Y) with Y240F, I243L

hTAS2R16 (ssr3-hTAS2R16) [3] = target: T3, hTAS2R16 (ssr3-hTAS2R16) (Homo sapiens, UniProt Q9NYV7, W94F)
T3 sequence (Q9NYV7 1-291 W94F): T1 sequence (Q9NYV7 1-291 F240Y) with W94F, Y240F

hTAS2R16 (ssr3-hTAS2R16) [4] = target: T4, hTAS2R16 (ssr3-hTAS2R16) (Homo sapiens, UniProt Q9NYV7, Q177N)
T4 sequence (Q9NYV7 1-291 Q177N): T1 sequence (Q9NYV7 1-291 F240Y) with Q177N, Y240F

hTAS2R16 (ssr3-hTAS2R16) [5] = target: T5, hTAS2R16 (ssr3-hTAS2R16) (Homo sapiens, UniProt Q9NYV7, I243A)
T5 sequence (Q9NYV7 1-291 I243A): T1 sequence (Q9NYV7 1-291 F240Y) with Y240F, I243A

hTAS2R16 (ssr3-hTAS2R16) [6] = target: T6, hTAS2R16 (ssr3-hTAS2R16) (Homo sapiens, UniProt Q9NYV7, H181T)
T6 sequence (Q9NYV7 1-291 H181T): T1 sequence (Q9NYV7 1-291 F240Y) with H181T, Y240F

hTAS2R16 (ssr3-hTAS2R16) [7] = target: T7, hTAS2R16 (ssr3-hTAS2R16) (Homo sapiens, UniProt Q9NYV7, W94Y)
T7 sequence (Q9NYV7 1-291 W94Y): T1 sequence (Q9NYV7 1-291 F240Y) with W94Y, Y240F

hTAS2R16 (ssr3-hTAS2R16) [8] = target: T8, hTAS2R16 (ssr3-hTAS2R16) (Homo sapiens, UniProt Q9NYV7, E86D)
T8 sequence (Q9NYV7 1-291 E86D): T1 sequence (Q9NYV7 1-291 F240Y) with E86D, Y240F

EC50 (hTAS2R16 (ssr3-hTAS2R16) [1]): 2440 µM
EC50 (hTAS2R16 (ssr3-hTAS2R16) [2]): 500 µM
EC50 (hTAS2R16 (ssr3-hTAS2R16) [3]): 9680 µM
EC50 (hTAS2R16 (ssr3-hTAS2R16) [4]): 390 µM
EC50 (hTAS2R16 (ssr3-hTAS2R16) [5]): > 30000 µM
EC50 (hTAS2R16 (ssr3-hTAS2R16) [6]): 1840 µM
EC50 (hTAS2R16 (ssr3-hTAS2R16) [7]): 1360 µM
EC50 (hTAS2R16 (ssr3-hTAS2R16) [8]): 2130 µM
Compound: OCc1ccccc1O[C@@H]1O[C@H](CO)[C@@H](O)[C@H](O)[C@H]1O [salicin]

Reference: article PMC2934701 (The Journal of Biological Chemistry, 2010)
